Measurements as given in patent publication US20230322747A1, “OXADIAZOLE HDAC6 INHIBITORS AND USES THEREOF” (Eikonizo Therapeutics, Inc., priority 2022, published 2023).

Assays:
[1] = molecular target: Human HDAC6 (Homo sapiens (Human), UniProt Q9UBN7); experiment: HDAC6 enzymatic activity assay (Caliper endpoint or fluorogenic format); type: biochemical; details: for IC50: in vitro enzymatic; for Selectivity (6 v 8) (fold): ratio of HDAC8 IC50/HDAC6 IC50
[2] = molecular target: Human HDAC8 (Homo sapiens (Human), UniProt Q9BY41); experiment: Caliper endpoint assay for HDAC8 enzymatic activity; type: biochemical; details: in vitro enzymatic
Human HDAC8, sequence (Q9BY41 whole entry): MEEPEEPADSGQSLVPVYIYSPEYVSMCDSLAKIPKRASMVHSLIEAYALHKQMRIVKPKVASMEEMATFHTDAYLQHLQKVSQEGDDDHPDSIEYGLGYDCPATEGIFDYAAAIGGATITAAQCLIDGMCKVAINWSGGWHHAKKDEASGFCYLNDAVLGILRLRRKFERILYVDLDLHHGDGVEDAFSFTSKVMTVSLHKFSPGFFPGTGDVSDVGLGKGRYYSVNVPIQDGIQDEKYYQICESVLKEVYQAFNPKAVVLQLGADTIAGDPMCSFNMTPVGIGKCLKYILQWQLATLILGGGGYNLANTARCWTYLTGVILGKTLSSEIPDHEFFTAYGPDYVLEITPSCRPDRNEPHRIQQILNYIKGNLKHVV

Human HDAC6, sequence (Q9UBN7 whole entry): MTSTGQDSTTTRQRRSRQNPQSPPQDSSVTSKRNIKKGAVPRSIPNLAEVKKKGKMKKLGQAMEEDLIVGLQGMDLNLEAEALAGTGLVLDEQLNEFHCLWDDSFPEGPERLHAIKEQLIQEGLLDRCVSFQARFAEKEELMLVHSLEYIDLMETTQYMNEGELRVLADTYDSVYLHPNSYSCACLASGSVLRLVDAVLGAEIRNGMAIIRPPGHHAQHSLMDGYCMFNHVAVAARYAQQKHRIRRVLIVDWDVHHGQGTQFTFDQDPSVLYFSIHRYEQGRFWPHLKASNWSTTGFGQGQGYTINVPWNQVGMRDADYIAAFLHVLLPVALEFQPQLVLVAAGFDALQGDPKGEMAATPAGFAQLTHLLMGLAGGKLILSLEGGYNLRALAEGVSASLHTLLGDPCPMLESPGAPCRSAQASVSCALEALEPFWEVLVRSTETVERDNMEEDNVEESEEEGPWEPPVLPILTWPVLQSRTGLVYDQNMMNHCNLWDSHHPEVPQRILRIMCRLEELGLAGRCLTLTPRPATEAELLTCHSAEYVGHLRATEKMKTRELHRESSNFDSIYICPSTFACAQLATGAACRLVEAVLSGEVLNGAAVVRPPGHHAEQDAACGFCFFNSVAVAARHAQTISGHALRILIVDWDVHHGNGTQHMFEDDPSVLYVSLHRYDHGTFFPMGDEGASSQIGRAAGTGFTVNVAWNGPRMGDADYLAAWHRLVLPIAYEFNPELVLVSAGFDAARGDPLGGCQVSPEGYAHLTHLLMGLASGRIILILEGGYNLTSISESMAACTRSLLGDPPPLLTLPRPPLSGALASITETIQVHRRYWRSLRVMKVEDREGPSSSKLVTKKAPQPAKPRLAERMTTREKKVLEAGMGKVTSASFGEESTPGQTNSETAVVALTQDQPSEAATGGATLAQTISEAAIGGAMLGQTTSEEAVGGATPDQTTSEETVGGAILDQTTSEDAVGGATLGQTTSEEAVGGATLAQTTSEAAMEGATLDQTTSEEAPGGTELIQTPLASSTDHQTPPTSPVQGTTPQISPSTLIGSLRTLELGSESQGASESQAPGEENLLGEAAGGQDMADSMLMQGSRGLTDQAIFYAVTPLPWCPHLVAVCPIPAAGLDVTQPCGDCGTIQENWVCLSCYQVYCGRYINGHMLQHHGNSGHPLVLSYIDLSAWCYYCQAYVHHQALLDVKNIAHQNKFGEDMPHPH

IC50 [1] [µM] | Selectivity (6 v 8) (fold) [1] | IC50 [2] [µM] | Compound
0.001 to 0.1 | V (V: >1000) | > 100 | FC(F)c1nnc(-c2ccc(COc3ccncc3)nc2)o1 [Compound 18, 2-(difluoromethyl)-5-(6-((pyridin-4-yloxy)methyl)pyridin-3-yl)-1,3,4-oxadiazole]
1 to 10 | III (III: >10-100) | > 100 | CC(C)n1cnc2ccc(OCc3ccc(-c4nnc(C(F)F)o4)cn3)cc21 [Compound 203]
0.001 to 0.1 | V (V: >1000) | > 100 | N#Cc1ccc(OCc2ccc(-c3nnc(C(F)F)o3)cn2)cc1F [Compound 52]
0.001 to 0.1 | V (V: >1000) | 10 to 100 | N#Cc1ccc(OCc2ccc(-c3nnc(C(F)F)o3)cn2)c(F)c1 [Compound 47]
1 to 10 | III (III: >10-100) | > 100 | FC(F)c1nnc(-c2ccc(COc3ccc4c(c3)ncn4CCN3CCCC3)nc2)o1 [Compound 209]
0.001 to 0.1 | V (V: >1000) | > 100 | N#CCc1ccccc1OCc1ccc(-c2nnc(C(F)F)o2)cn1 [Compound 44]
0.001 to 0.1 | V (V: >1000) | > 100 | Fc1ccc(OCc2ccc(-c3nnc(C(F)F)o3)cn2)cc1F [Compound 9, 2-(difluoromethyl)-5-(6-((3,4-difluorophenoxy)methyl)pyridin-3-yl)-1,3,4-oxadiazole]
0.001 to 0.1 | V (V: >1000) | > 100 | N#Cc1cccc(OCc2ccc(-c3nnc(C(F)F)o3)cn2)c1F [Compound 46]
0.001 to 0.1 | V (V: >1000) | > 100 | Fc1cccnc1OCc1ccc(-c2nnc(C(F)F)o2)cn1 [Compound 77, 2-(Difluoromethyl)-5-[6-[(3-fluoro-2-pyridyl)oxymethyl]-3-pyridyl]-1,3,4-oxadiazole]
0.001 to 0.1 | V (V: >1000) | > 100 | Fc1ccc(Cl)cc1OCc1ccc(-c2nnc(C(F)F)o2)cn1 [Compound 2, 2-(6-((5-chloro-2-fluorophenoxy)methyl)pyridin-3-yl)-5-(difluoromethyl)-1,3,4-oxadiazole]
0.001 to 0.1 | IV (IV: >100-1000) | 1 to 10 | FC(F)c1nnc(-c2ccc(COc3ccc4ccncc4c3)nc2)o1 [Compound 31]
0.001 to 0.1 | V (V: >1000) | > 100 | FC(F)c1nnc(-c2ccc(COCC34CC5CC(CC(C5)O3)C4)nc2)o1 [Compound 20, 2-(6-(((2-oxaadamantan-1-yl)methoxy)methyl)pyridin-3-yl)-5-(difluoromethyl)-1,3,4-oxadiazole]
0.1 to 1 | V (V: >1000) | > 100 | FC(F)c1nnc(-c2ccc(COc3ccnc(N4CCOCC4)n3)nc2)o1 [Compound 99]
0.1 to 1 | V (V: >1000) | > 100 | Cc1cccnc1OCc1ccc(-c2nnc(C(F)F)o2)cn1 [Compound 73]
0.001 to 0.1 | IV (IV: >100-1000) | 10 to 100 | N#CCc1ccc(OCc2ccc(-c3nnc(C(F)F)o3)cn2)cc1 [Compound 43]
0.001 to 0.1 | V (V: >1000) | > 100 | N#Cc1cc(F)ccc1OCc1ccc(-c2nnc(C(F)F)o2)cn1 [Compound 45]
0.001 to 0.1 | V (V: >1000) | > 100 | CC(C)n1ccc(OCc2ccc(-c3nnc(C(F)F)o3)cn2)n1 [Compound 79]
0.001 to 0.1 | V (V: >1000) | > 100 | N#Cc1cccc(OCc2ccc(-c3nnc(C(F)F)o3)cn2)c1 [Compound 26]
0.001 to 0.1 | V (V: >1000) | > 100 | FC(F)c1nnc(-c2ccc(COc3ccccn3)nc2)o1 [Compound 16, 2-(difluoromethyl)-5-(6-((pyridin-2-yloxy)methyl)pyridin-3-yl)-1,3,4-oxadiazole]
0.1 to 1 | IV (IV: >100-1000) | 10 to 100 | FC(F)c1nnc(-c2ccc(COc3ccc(C4CC4)nn3)nc2)o1 [Compound 83]
0.001 to 0.1 | V (V: >1000) | > 100 | FC(F)c1nnc(-c2ccc(COc3cccc4cnccc34)nc2)o1 [Compound 35]
0.001 to 0.1 | V (V: >1000) | > 100 | Cc1nc(OCc2ccc(-c3nnc(C(F)F)o3)cn2)c2ccccc2n1 [Compound 97]
0.001 to 0.1 | V (V: >1000) | > 100 | Fc1ccc(OCc2ccc(-c3nnc(C(F)F)o3)cn2)cc1 [Compound 12, 2-(difluoromethyl)-5-(6-((4-fluorophenoxy)methyl)pyridin-3-yl)-1,3,4-oxadiazole]

IC50 [1] [µM] | Selectivity (6 v 8) (fold) [1] | IC50 [2] [µM] | Compound
0.1 to 1 | IV (IV: >100-1000) | > 100 | CN1CCc2c(OCc3ccc(-c4nnc(C(F)F)o4)cn3)noc2C1 [Compound 191, 3-((5-(5-(Difluoromethyl)-1,3,4-oxadiazol-2-yl)pyridin-2-yl)methoxy)-6-methyl-4,5,6,7-tetrahydroisoxazolo[5,4-c]pyridine]
1 to 10 | III (III: >10-100) | > 100 | CN(C)CCn1cnc2cc(OCc3ccc(-c4nnc(C(F)F)o4)cn3)ccc21 [Compound 210]
0.001 to 0.1 | V (V: >1000) | 10 to 100 | Cn1ncc2cc(OCc3ccc(-c4nnc(C(F)F)o4)cn3)ccc21 [Compound 37]
0.1 to 1 | V (V: >1000) | > 100 | FC(F)c1nnc(-c2ccc(COc3ccc(C4CC4)cn3)nc2)o1 [Compound 85, 2-[6-[(5-cyclopropyl-2-pyridyl)oxymethyl]-3-pyridyl]-5-(difluoromethyl)-1,3,4-oxadiazole]
0.001 to 0.1 | V (V: >1000) | > 100 | FC(F)c1nnc(-c2ccc(COc3cncnc3)nc2)o1 [Compound 102]
0.001 to 0.1 | V (V: >1000) | > 100 | Fc1ccc(OCc2ccc(-c3nnc(C(F)F)o3)cn2)c(Cl)c1 [Compound 4, 2-(6-((2-chloro-4-fluorophenoxy)methyl)pyridin-3-yl)-5-(difluoromethyl)-1,3,4-oxadiazole]
0.001 to 0.1 | V (V: >1000) | > 100 | FC(F)c1nnc(-c2ccc(COc3ccc4nccnc4c3)nc2)o1 [Compound 36]
0.001 to 0.1 | V (V: >1000) | > 100 | Cc1ccnc(OCc2ccc(-c3nnc(C(F)F)o3)cn2)c1 [Compound 71]
0.001 to 0.1 | V (V: >1000) | > 100 | N#Cc1cc(OCc2ccc(-c3nnc(C(F)F)o3)cn2)ccc1F [Compound 30]
0.001 to 0.1 | V (V: >1000) | > 100 | FC(F)c1nnc(-c2ccc(COc3ccc(C(F)(F)F)nc3)nc2)o1 [Compound 91]
0.001 to 0.1 | V (V: >1000) | > 100 | N#Cc1cc(F)cc(OCc2ccc(-c3nnc(C(F)F)o3)cn2)c1 [Compound 51]
0.001 to 0.1 | V (V: >1000) | > 100 | C#Cc1ccccc1OCc1ccc(-c2nnc(C(F)F)o2)cn1 [Compound 41]
0.001 to 0.1 | V (V: >1000) | 10 to 100 | FC(F)c1nnc(-c2ccc(COc3ccc4cnccc4c3)nc2)o1 [Compound 32]
0.1 to 1 | V (V: >1000) | > 100 | Cn1cc(OCc2ccc(-c3nnc(C(F)F)o3)cn2)cn1 [Compound 65]
0.001 to 0.1 | V (V: >1000) | > 100 | Cn1ncc2c(OCc3ccc(-c4nnc(C(F)F)o4)cn3)cccc21 [Compound 58]
0.001 to 0.1 | V (V: >1000) | 10 to 100 | Cc1noc2cccc(OCc3ccc(-c4nnc(C(F)F)o4)cn3)c12 [Compound 60]
0.001 to 0.1 | V (V: >1000) | > 100 | Fc1ccc(Cl)c(OCc2ccc(-c3nnc(C(F)F)o3)cn2)c1 [Compound 7, 2-(6-((2-chloro-5-fluorophenoxy)methyl)pyridin-3-yl)-5-(difluoromethyl)-1,3,4-oxadiazole]
0.001 to 0.1 | V (V: >1000) | > 100 | FC(F)c1nnc(-c2ccc(COc3cccc4ocnc34)nc2)o1 [Compound 28]
0.001 to 0.1 | V (V: >1000) | > 100 | FC(F)c1nnc(-c2ccc(COc3ccc4c(c3)CCCC4)nc2)o1 [Compound 54]
0.001 to 0.1 | V (V: >1000) | > 100 | FC(F)c1nnc(-c2ccc(COc3ccc4ocnc4c3)nc2)o1 [Compound 53]
0.1 to 1 | IV (IV: >100-1000) | > 100 | FC(F)c1nnc(-c2ccc(COc3ccn4cnnc4c3)nc2)o1 [Compound 184, 2-(6-(([1,2,4]triazolo[4,3-a]pyridin-7-yloxy)methyl)pyridin-3-yl)-5-(difluoromethyl)-1,3,4-oxadiazole]
0.1 to 1 | IV (IV: >100-1000) | > 100 | CCn1cnc2cc(OCc3ccc(-c4nnc(C(F)F)o4)cn3)ccc21 [Compound 211]
0.001 to 0.1 | V (V: >1000) | > 100 | Fc1ccc(OCc2ccc(-c3nnc(C(F)F)o3)cn2)nc1 [Compound 76]

Compound | IC50 [1] [µM] | Selectivity (6 v 8) (fold) [1] | IC50 [2] [µM]
Fc1ccc(OCc2ncc(-c3nnc(C(F)F)o3)cn2)cc1 [Compound 1, 2-(difluoromethyl)-5-(2-((4-fluorophenoxy)methyl)pyrimidin-5-yl)-1,3,4-oxadiazole] | 0.001 to 0.1 | V (V: >1000) | > 100
